“Also recorded” adds a separate entry of the source. Structures can show the parent of a compound that is named as a salt.
Assay: Wide-range pH-stability profiling at 40° C.
Type: physicochemical
Settings: 0.1 mg/ml, pH 2-8, 50 mM phosphate or acetate, FIG. 1
Procedure: The drug is monitored at a detection wavelength of 232 nm.
All samples were stored in the dark.
The phosphate buffers were prepared by adding phosphoric acid (3.40 ml) to de-ionized (DI) water, adjusting the pH with 2 N NaOH, and bringing the volume to 1 L in a volumetric flask. The acetate buffers were prepared by adding acetic acid (2.95 ml) to water, adjusting the pH value with 2 N NaOH, and bringing the volume to 1 L in a volumetric flask.
Measurements were performed for pH after samples had been analyzed by HPLC.
In all stability studies, glass serum vials with rubber closures and flip-top seals were used for storage of the samples to minimize fluid loss. The weights of samples were measured at the beginning of the experiment, prior to sampling for analysis, and after resealing the vials to monitor for any weight loss due to heating. No significant weight loss was observed.
At each pH, the concentration was divided by the corresponding initial concentration (day 0) to obtain the percent recovery. The percent recovery was plotted against time for calculation of first-order rate kinetics. The slope of each pH line was calculated as the rate constant and plotted against pH to obtain a wide-range pH-stability profile.

Q: For `Cc1ccc(N(CC2=NCCN2)c2cccc(O)c2)cc1` [Phentolamine Mesylate, phentolamine mesylate], which “wide-range pH-stability profile (rate of degradation)” value is on record?
A: significant increase in rate of degradation was observed at pH above 7; also recorded: samples prepared in acetate buffers appeared to be more stable than their counterparts in the phosphate buffers
